Assay results as given in the NIST ThermoML archive (doi:10.1021/je700287u).

Assay: xn = mol fraction of the nth substance listed
Settings: Liquid

CN(CCO)CCO [N-methyldiethanolamine] + O
Settings | mass density [kg/m3]
333.04 K, 10996 kPa, x1 = 0.0369 | 1000
333.04 K, 11991 kPa, x1 = 0.0369 | 1000.4
333.04 K, 12996 kPa, x1 = 0.0369 | 1000.8
333.04 K, 13988 kPa, x1 = 0.0369 | 1001.2
333.04 K, 14991 kPa, x1 = 0.0369 | 1001.6
333.04 K, 15994 kPa, x1 = 0.0369 | 1002
333.04 K, 16992 kPa, x1 = 0.0369 | 1002.4
333.04 K, 17985 kPa, x1 = 0.0369 | 1002.8
333.04 K, 18990 kPa, x1 = 0.0369 | 1003.2
333.04 K, 19977 kPa, x1 = 0.0369 | 1003.6
333.05 K, 1013 kPa, x1 = 0.0893 | 1013
333.05 K, 2006 kPa, x1 = 0.0893 | 1013.4
333.05 K, 2994 kPa, x1 = 0.0893 | 1013.8
333.05 K, 4031 kPa, x1 = 0.0893 | 1014.2
333.05 K, 4999 kPa, x1 = 0.0893 | 1014.6
333.05 K, 6000 kPa, x1 = 0.0893 | 1015
333.05 K, 6995 kPa, x1 = 0.0893 | 1015.4
333.05 K, 8005 kPa, x1 = 0.0893 | 1015.8
333.05 K, 9000 kPa, x1 = 0.0893 | 1016.2
333.05 K, 9992 kPa, x1 = 0.0893 | 1016.5
333.05 K, 10993 kPa, x1 = 0.0893 | 1017
333.05 K, 11998 kPa, x1 = 0.0893 | 1017.3
333.05 K, 13000 kPa, x1 = 0.0893 | 1017.7
333.05 K, 14008 kPa, x1 = 0.0893 | 1018.1
333.05 K, 14983 kPa, x1 = 0.0893 | 1018.5
333.05 K, 16002 kPa, x1 = 0.0893 | 1018.9
333.05 K, 17032 kPa, x1 = 0.0893 | 1019.3
333.05 K, 17945 kPa, x1 = 0.0893 | 1019.6
333.05 K, 18989 kPa, x1 = 0.0893 | 1020
333.05 K, 19994 kPa, x1 = 0.0893 | 1020.4
342.91 K, 1008 kPa, x1 = 0.1302 | 1011.7
342.91 K, 1996 kPa, x1 = 0.1302 | 1012.1
342.91 K, 3044 kPa, x1 = 0.1302 | 1012.5
342.91 K, 4015 kPa, x1 = 0.1302 | 1012.9
342.91 K, 5006 kPa, x1 = 0.1302 | 1013.4
342.91 K, 5995 kPa, x1 = 0.1302 | 1013.8
342.91 K, 7010 kPa, x1 = 0.1302 | 1014.2
342.91 K, 8001 kPa, x1 = 0.1302 | 1014.6
342.91 K, 8996 kPa, x1 = 0.1302 | 1015
342.91 K, 9995 kPa, x1 = 0.1302 | 1015.5
342.91 K, 10992 kPa, x1 = 0.1302 | 1015.9
342.91 K, 12029 kPa, x1 = 0.1302 | 1016.3
342.91 K, 12993 kPa, x1 = 0.1302 | 1016.7
342.91 K, 13996 kPa, x1 = 0.1302 | 1017.1
342.91 K, 14997 kPa, x1 = 0.1302 | 1017.5
342.91 K, 15998 kPa, x1 = 0.1302 | 1017.9
342.91 K, 16997 kPa, x1 = 0.1302 | 1018.3
342.91 K, 18033 kPa, x1 = 0.1302 | 1018.8
342.91 K, 18977 kPa, x1 = 0.1302 | 1019.2
342.91 K, 19980 kPa, x1 = 0.1302 | 1019.6
342.94 K, 1029 kPa, x1 = 0.0893 | 1005.9
342.94 K, 1996 kPa, x1 = 0.0893 | 1006.3
342.94 K, 3018 kPa, x1 = 0.0893 | 1006.7
342.94 K, 3995 kPa, x1 = 0.0893 | 1007.1
342.94 K, 5000 kPa, x1 = 0.0893 | 1007.5
342.94 K, 5992 kPa, x1 = 0.0893 | 1007.9
342.94 K, 7008 kPa, x1 = 0.0893 | 1008.3
342.94 K, 7994 kPa, x1 = 0.0893 | 1008.8
342.94 K, 9001 kPa, x1 = 0.0893 | 1009.1
342.94 K, 9994 kPa, x1 = 0.0893 | 1009.6
342.94 K, 10983 kPa, x1 = 0.0893 | 1010
342.94 K, 12000 kPa, x1 = 0.0893 | 1010.4
342.94 K, 12996 kPa, x1 = 0.0893 | 1010.8
342.94 K, 14014 kPa, x1 = 0.0893 | 1011.2
342.94 K, 14994 kPa, x1 = 0.0893 | 1011.6
342.94 K, 15989 kPa, x1 = 0.0893 | 1012
342.94 K, 16991 kPa, x1 = 0.0893 | 1012.4
342.94 K, 17989 kPa, x1 = 0.0893 | 1012.8
342.94 K, 18984 kPa, x1 = 0.0893 | 1013.2
342.94 K, 19988 kPa, x1 = 0.0893 | 1013.6
342.96 K, 1042 kPa, x1 = 0.0607 | 999.5
342.96 K, 2006 kPa, x1 = 0.0607 | 999.8
342.96 K, 3028 kPa, x1 = 0.0607 | 1000.3
342.96 K, 4013 kPa, x1 = 0.0607 | 1000.7
342.96 K, 5003 kPa, x1 = 0.0607 | 1001.2
342.96 K, 5994 kPa, x1 = 0.0607 | 1001.6
342.96 K, 7004 kPa, x1 = 0.0607 | 1002
342.96 K, 8063 kPa, x1 = 0.0607 | 1002.5
342.96 K, 9140 kPa, x1 = 0.0607 | 1003
342.96 K, 10022 kPa, x1 = 0.0607 | 1003.4
342.96 K, 11032 kPa, x1 = 0.0607 | 1003.7
342.96 K, 11997 kPa, x1 = 0.0607 | 1004.1
342.96 K, 13009 kPa, x1 = 0.0607 | 1004.5
342.96 K, 14001 kPa, x1 = 0.0607 | 1004.9
342.96 K, 15005 kPa, x1 = 0.0607 | 1005.3
342.96 K, 16002 kPa, x1 = 0.0607 | 1005.7
342.96 K, 17011 kPa, x1 = 0.0607 | 1006.1
342.96 K, 17988 kPa, x1 = 0.0607 | 1006.5
342.96 K, 18992 kPa, x1 = 0.0607 | 1006.9
342.96 K, 20154 kPa, x1 = 0.0607 | 1007.3
352.84 K, 1009 kPa, x1 = 0.1302 | 1004
352.84 K, 2026 kPa, x1 = 0.1302 | 1004.3
352.84 K, 3005 kPa, x1 = 0.1302 | 1004.8
352.84 K, 4006 kPa, x1 = 0.1302 | 1005.3
352.84 K, 5004 kPa, x1 = 0.1302 | 1005.7
352.84 K, 5993 kPa, x1 = 0.1302 | 1006.1
352.84 K, 6991 kPa, x1 = 0.1302 | 1006.5
352.84 K, 7992 kPa, x1 = 0.1302 | 1006.9
352.84 K, 8994 kPa, x1 = 0.1302 | 1007.4
352.84 K, 9980 kPa, x1 = 0.1302 | 1007.8
352.84 K, 10971 kPa, x1 = 0.1302 | 1008.2
352.84 K, 11987 kPa, x1 = 0.1302 | 1008.7
352.84 K, 13040 kPa, x1 = 0.1302 | 1009.1
352.84 K, 13997 kPa, x1 = 0.1302 | 1009.5
352.84 K, 14981 kPa, x1 = 0.1302 | 1009.9
